Source: ChEMBL document CHEMBL4196051, “Pyrazole-pyrazoline as promising novel antimalarial agents: A mechanistic study” (Eur J Med Chem, 2018)

Key:
Plasmodium falciparum [1] = test: Antimalarial activity against chloroquine-sensitive Plasmodium falciparum 3D7 infected in red blood cells assessed as reduction in mature schizonts formation after 24 hrs by Giemsa-staining based assay; assay type: functional, organism-based; conditions: 3D7, 24 h
[2] = Selectivity index, ratio of CC50 for African green monkey Vero cells to EC50 for chloroquine-resistant Plasmodium falciparum RKL9; assay type: toxicity; conditions: read-out: Ratio CC50/EC50
Plasmodium falciparum [3] = test: Antimalarial activity against chloroquine-resistant Plasmodium falciparum RKL9 infected in red blood cells assessed as reduction in mature schizonts formation after 24 hrs by Giemsa-staining based assay; assay type: functional, organism-based; conditions: RKL9, 24 h
[4] = Resistance Index, ratio of EC50 for chloroquine-resistant Plasmodium falciparum RKL9 to EC50 for chloroquine-sensitive Plasmodium falciparum 3D7; assay type: functional
[5] = Cytotoxicity against African green monkey Vero cells assessed as reduction in cell viability after 72 hrs by MTT assay; assay type: cell-based; conditions: chlorocebus sabaeus
[6] = Selectivity index, ratio of CC50 for African green monkey Vero cells to EC50 for chloroquine-sensitive Plasmodium falciparum 3D7; assay type: toxicity; conditions: read-out: Ratio CC50/EC50
Heme [7] = test: Inhibition of heme crystal growth
Plasmodium berghei [8] = test: Antimalarial activity against Plasmodium berghei NK65 infected in Swiss albino mouse assessed as reduction in parasitemia at 50 mg/kg, po treated up to day 3 measured at day 4 by Giemsa-staining based microscopic analysis relative to control; assay type: functional; design: scale not given: the % may be the effect or the level left
Plasmodium berghei [9] = test: Antimalarial activity against Plasmodium berghei NK65 infected in Swiss albino mouse assessed as mean survival days at 50 mg/kg, po treated up to day 3 measured over 30 days (reference value: 7.2 days); assay type: functional
Plasmodium berghei [10] = test: Antimalarial activity against Plasmodium berghei NK65 infected in Swiss albino mouse assessed as mean survival days at 25 mg/kg, po treated up to day 3 measured over 30 days (reference value: 7.2 days); assay type: functional
Heme [11] = test: Binding affinity to monomeric heme in DMSO/HEPES buffer solution at pH 5.6 by titration analysis
Plasmodium berghei [12] = test: Antimalarial activity against Plasmodium berghei NK65 infected in Swiss albino mouse assessed as reduction in parasitemia at 25 mg/kg, po treated up to day 3 measured at day 4 by Giemsa-staining based microscopic analysis relative to control; assay type: functional; design: scale not given: the % may be the effect or the level left
mu-oxodimeric heme = test: Binding affinity to mu-oxodimeric heme in 0.1M NaOH solution at pH 5.8 by titration analysis
Heme [13] = test: Binding affinity to monomeric heme in DMSO/HEPES buffer solution at pH 7.4 by titration analysis
Plasmodium berghei [14] = test: Antimalarial activity against Plasmodium berghei NK65 infected in Swiss albino mouse assessed as mean survival days at 5 mg/kg, po treated up to day 3 measured over 30 days (reference value: 7.2 days); assay type: functional
Plasmodium berghei [15] = test: Antimalarial activity against Plasmodium berghei NK65 infected in Swiss albino mouse assessed as reduction in parasitemia at 5 mg/kg, po treated up to day 3 measured at day 4 by Giemsa-staining based microscopic analysis relative to control; assay type: functional; design: scale not given: the % may be the effect or the level left
Plasmodium falciparum [16] = test: Antimalarial activity against Plasmodium falciparum; assay type: functional, organism-based
Plasmodium falciparum [17] = test: Antimalarial activity against chloroquine-resistant Plasmodium falciparum W2 after 48 hrs by LDH assay; assay type: functional, organism-based; conditions: W2, 48 h
Plasmodium falciparum [18] = test: Antimalarial activity against chloroquine-sensitive Plasmodium falciparum 3D7 infected in red blood cells assessed as reduction in mature schizonts formation after 72 hrs by Giemsa-staining based assay; assay type: functional, organism-based; conditions: 3D7, 72 h

Cc1ccc(C2=NN(c3ccc(S(N)(=O)=O)cc3)C(c3cn(-c4ccccc4)nc3-c3ccc(C)cc3)C2)cc1 (configuration not stated) showed an EC50 (Plasmodium falciparum [1]) of 1.43 µM, a selectivity ratio [2] of over 52.8 and an EC50 (Plasmodium falciparum [3]) of 1.64 µM. The Ratio EC50 [4] was 1.14, the CC50 at 72 h [5] was over 41.5 µM and the selectivity ratio [6] was over 52.8.

In the case of COc1ccc(C2=NN(c3ccc(S(N)(=O)=O)cc3)C(c3cn(-c4ccccc4)nc3-c3ccc(F)cc3)C2)cc1 (configuration not stated), the EC50 (Plasmodium falciparum [1]) is reported as 1.65 µM, the selectivity ratio [2] is reported as over 56.4 and the EC50 (Plasmodium falciparum [3]) is reported as 2.04 µM. It also gave a Ratio EC50 [4] of 1.44, a CC50 at 72 h [5] of over 53.1 µM and a selectivity ratio [6] of over 56.4.

Clc1ccc(COC(Cn2ccnc2)c2ccc(Cl)cc2Cl)c(Cl)c1 (configuration not stated) [MICONAZOLE] showed an IC50 (Heme [7]) of 21.4 µM.

In the case of COc1cccc(C2=NN(c3ccc(S(N)(=O)=O)cc3)C(c3cn(-c4ccccc4)nc3-c3ccc(C)cc3)C2)c1OC (configuration not stated), the EC50 (Plasmodium falciparum [1]) is reported as 1.61 µM, the selectivity ratio [2] is reported as over 60 and the EC50 (Plasmodium falciparum [3]) is reported as 1.55 µM. The Ratio EC50 [4] was 0.97, the CC50 at 72 h [5] was over 57.4 µM and the selectivity ratio [6] was over 60.

For COc1ccc(C2=NN(c3ccc(S(N)(=O)=O)cc3)C(c3cn(-c4ccccc4)nc3-c3ccccc3)C2)cc1 (configuration not stated), the EC50 (Plasmodium falciparum [1]) was 1.42 µM, the selectivity ratio [2] was 51.4 and the EC50 (Plasmodium falciparum [3]) was 1.78 µM. The Ratio EC50 [4] was 1.25, the CC50 at 72 h [5] was 40.2 µM and the selectivity ratio [6] was 51.4.

Molecule NS(=O)(=O)c1ccc(N2N=C(c3ccc(O)cc3)CC2c2cn(-c3ccccc3)nc2-c2ccccc2)cc1 (configuration not stated) has an EC50 (Plasmodium falciparum [1]) of 3.05 µM, a selectivity ratio [2] of over 98 and a CC50 at 72 h [5] of over 161 µM. The selectivity ratio [6] was over 98.

Work on COc1ccc(C2=NN(c3ccc(S(N)(=O)=O)cc3)C(c3cn(-c4ccccc4)nc3-c3ccc(C)cc3)C2)cc1 (configuration not stated) yielded an Activity (Plasmodium berghei [8]) of 82.49%, an MSD (Plasmodium berghei [9]) of 19.8 days and an MSD (Plasmodium berghei [10]) of 13.4 days. It also gave an EC50 (Plasmodium falciparum [1]) of 1.38 µM, a selectivity ratio [2] of over 46.8 and an EC50 (Plasmodium falciparum [3]) of 1.31 µM. For the same molecule, the Ratio EC50 [4] was 0.94, the log K (Heme [11]) was 5.58 and the CC50 at 72 h [5] was over 36.6 µM. For the same molecule, the Activity (Plasmodium berghei [12]) was 68.42%, the log K (mu-oxodimeric heme) was 5.19 and the selectivity ratio [6] was over 46.8. For the same molecule, the log K (Heme [13]) was 5.12.

In the case of CCN(CC)CCCC(C)Nc1ccnc2cc(Cl)ccc12 (configuration not stated) [CHLOROQUINE], the EC50 (Plasmodium falciparum [1]) is reported as 2.97 µM, the EC50 (Plasmodium falciparum [3]) is reported as 11.2 µM and the MSD (Plasmodium berghei [14]) is reported as 30 days. It also gave an Activity (Plasmodium berghei [15]) of 97.1%.

Molecule NS(=O)(=O)c1ccc(N2N=C(c3ccc(Cl)cc3Cl)CC2c2cn(-c3ccccc3)nc2-c2ccccc2)cc1 (configuration not stated) has an EC50 (Plasmodium falciparum [1]) of 4.58 µM, a selectivity ratio [2] of over 162 and a CC50 at 72 h [5] of over 438 µM. It also gave a selectivity ratio [6] of over 162.

NS(=O)(=O)c1ccc(N2N=C(c3ccc(F)cc3)CC2c2cn(-c3ccccc3)nc2-c2ccc(F)cc2)cc1 (configuration not stated) showed an EC50 (Plasmodium falciparum [1]) of 6.36 µM, a selectivity ratio [2] of over 212 and a CC50 at 72 h [5] of over 753 µM. It also gave a selectivity ratio [6] of over 212.

Work on Cc1ccc(C2=NN(c3ccc(S(N)(=O)=O)cc3)C(c3cn(-c4ccccc4)nc3-c3ccc(F)cc3)C2)cc1 (configuration not stated) yielded an EC50 (Plasmodium falciparum [1]) of 2.23 µM, a selectivity ratio [2] of over 73.2 and a CC50 at 72 h [5] of over 90.7 µM. For the same molecule, the selectivity ratio [6] was over 73.2.

In the case of Clc1ccccc1C(c1ccccc1)(c1ccccc1)n1ccnc1 [CLOTRIMAZOLE], the IC50 (Plasmodium falciparum [16]) is reported as 12.9 µM.

Work on NS(=O)(=O)c1ccc(N2N=C(c3ccc(O)cc3)CC2c2cn(-c3ccccc3)nc2-c2ccc(F)cc2)cc1 (configuration not stated) yielded an EC50 (Plasmodium falciparum [1]) of 1.57 µM, a selectivity ratio [2] of 36.9 and an EC50 (Plasmodium falciparum [3]) of 2.02 µM. The Ratio EC50 [4] was 1.29, the CC50 at 72 h [5] was 32 µM and the selectivity ratio [6] was 36.9.

Cc1ccc(-c2nn(-c3ccccc3)cc2C2CC(c3ccccc3)=NN2c2ccc(S(N)(=O)=O)cc2)cc1 (configuration not stated) showed an EC50 (Plasmodium falciparum [1]) of 2.97 µM, a selectivity ratio [2] of over 98 and a CC50 at 72 h [5] of over 162 µM. For the same molecule, the selectivity ratio [6] was over 98.

In the case of C[n+]1c2ccc(Br)cc2cc2[nH]c3ccc(Br)cc3c21, the IC50 (Plasmodium falciparum [17]) is reported as 4 µM.

NS(=O)(=O)c1ccc(N2N=C(c3ccc(Br)cc3)CC2c2cn(-c3ccccc3)nc2-c2ccc(F)cc2)cc1 (configuration not stated) gave an EC50 (Plasmodium falciparum [1]) of 3.08 µM, a selectivity ratio [2] of 25.9 and a CC50 at 72 h [5] of 49.4 µM. It also gave a selectivity ratio [6] of 25.9.

NS(=O)(=O)c1ccc(N2N=C(c3ccc(Cl)cc3)CC2c2cn(-c3ccccc3)nc2-c2ccccc2)cc1 (configuration not stated) gave an EC50 (Plasmodium falciparum [1]) of 3.35 µM, a selectivity ratio [2] of over 111 and a CC50 at 72 h [5] of over 207 µM. For the same molecule, the selectivity ratio [6] was over 111.

Work on COc1ccc(C2=NN(c3ccc(S(N)(=O)=O)cc3)C(c3cn(-c4ccccc4)nc3-c3ccc(OC)cc3)C2)cc1 (configuration not stated) yielded an EC50 (Plasmodium falciparum [1]) of 2.26 µM, a selectivity ratio [2] of 78.9 and a CC50 at 72 h [5] of 104 µM. The selectivity ratio [6] was 78.9.

NS(=O)(=O)c1ccc(N2N=C(c3ccc(Cl)cc3)CC2c2cn(-c3ccccc3)nc2-c2ccc(Cl)cc2)cc1 (configuration not stated) showed an EC50 (Plasmodium falciparum [1]) of 2.8 µM, a selectivity ratio [2] of over 99 and a CC50 at 72 h [5] of over 164 µM. For the same molecule, the selectivity ratio [6] was over 99.

For COc1ccc(C2=NN(c3ccc(S(N)(=O)=O)cc3)C(c3cn(-c4ccccc4)nc3-c3ccc(Cl)cc3)C2)cc1 (configuration not stated), the EC50 (Plasmodium falciparum [1]) was 1.61 µM, the selectivity ratio [2] was 33.2 and the EC50 (Plasmodium falciparum [3]) was 2.12 µM. It also gave a Ratio EC50 [4] of 1.31, a CC50 at 72 h [5] of 31.3 µM and a selectivity ratio [6] of 33.2.

In the case of NS(=O)(=O)c1ccc(N2N=C(c3ccc(F)cc3)CC2c2cn(-c3ccccc3)nc2-c2ccccc2)cc1 (configuration not stated), the EC50 (Plasmodium falciparum [1]) is reported as 6.67 µM, the selectivity ratio [2] is reported as over 225 and the CC50 at 72 h [5] is reported as over 807 µM. The selectivity ratio [6] was over 225.

With COc1ccc(/C=C(\C#N)c2nc3ccccc3[nH]2)cc1 the IC50 (Plasmodium falciparum [18]) was 0.069 µM.
